Where two headings read alike, the source gives them in different places.
Experiments:
Experiment in all cases: PDSP off-target radioligand binding assay
[1] = biological target: T1, D2 (Homo sapiens, UniProt P14416)
T1 construct: NIMH PDSP
Description: (§1) Table S1. Off binding data of CW24.
(§2) The off-target binding assays were performed at PDSP with their standard protocol (https://pdspdb.unc.edu/pdspWeb/content/UNC-CH%20Protocol%20Book.pdf). In radioligand binding assays, CW24 was tested at a single concentration (10 µM) and in quadruplicate in 96-well plates. The binding assays were carried out in a final of volume of 125 µl per well in appropriate binding buffers. The hot ligand concentration is usually at a concentration close to the Kd (unless otherwise indicated). Total binding and nonspecific binding are determined in the absence and presence of 10 µM of the appropriate reference compound, respectively. In brief, plates are usually incubated at room temperature and in the dark for 90 mins. Reactions are stopped by vacuum filtration onto 0.3% polyethyleneimine (PEI) soaked 96-well filter mats using a 96-well Filtermate harvester, followed by three washes with cold wash buffers (for details, see Tables 2 to 24). Scintillation cocktail is then melted onto the microwave-dried filters on a hot plate and radioactivity is counted in a Microbeta counter.
(§3) Receptor % Inhibition 1 % Inhibition 2 % Inhibition 3 % Inhibition 4 Mean±SD %

[2] = biological target: T2, 5-HT1B (Homo sapiens, UniProt P28222)
T2 construct: NIMH PDSP
T2 sequence (P28222 whole entry, species assumed): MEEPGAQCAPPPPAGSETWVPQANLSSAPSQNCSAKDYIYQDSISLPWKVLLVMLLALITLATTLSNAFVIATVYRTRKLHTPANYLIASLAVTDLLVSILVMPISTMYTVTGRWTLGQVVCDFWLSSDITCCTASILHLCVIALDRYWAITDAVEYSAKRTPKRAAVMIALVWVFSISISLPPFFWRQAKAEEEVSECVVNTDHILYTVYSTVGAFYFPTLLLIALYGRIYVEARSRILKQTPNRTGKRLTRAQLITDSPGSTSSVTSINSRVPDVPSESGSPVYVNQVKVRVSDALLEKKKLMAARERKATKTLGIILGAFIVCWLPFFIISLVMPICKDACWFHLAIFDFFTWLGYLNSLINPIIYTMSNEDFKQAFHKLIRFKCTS
Description: as §1, §2, §3

[3] = system: Sigma 1; details: 10 µM
Description: as §1, §2, §3

[4] = biological target: T3, 5-HT2A (Homo sapiens, UniProt P28223)
T3 construct: NIMH PDSP
T3 sequence (P28223 whole entry, species assumed): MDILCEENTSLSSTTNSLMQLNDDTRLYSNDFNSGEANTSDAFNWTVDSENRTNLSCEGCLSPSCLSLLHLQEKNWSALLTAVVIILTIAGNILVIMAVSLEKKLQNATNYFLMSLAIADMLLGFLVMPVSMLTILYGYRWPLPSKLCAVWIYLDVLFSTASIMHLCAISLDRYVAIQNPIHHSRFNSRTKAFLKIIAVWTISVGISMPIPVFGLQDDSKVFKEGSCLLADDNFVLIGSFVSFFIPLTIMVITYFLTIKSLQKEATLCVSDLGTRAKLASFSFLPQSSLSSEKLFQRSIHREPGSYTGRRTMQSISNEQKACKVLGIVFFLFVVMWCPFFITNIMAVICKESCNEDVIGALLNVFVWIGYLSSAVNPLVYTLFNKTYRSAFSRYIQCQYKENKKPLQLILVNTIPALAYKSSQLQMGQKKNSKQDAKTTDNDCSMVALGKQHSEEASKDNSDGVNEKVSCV
Description: as §1, §2, §3

[5] = biological target: T4, Alpha2C (Homo sapiens, UniProt P18825)
T4 construct: NIMH PDSP
T4 sequence (P18825 1-462): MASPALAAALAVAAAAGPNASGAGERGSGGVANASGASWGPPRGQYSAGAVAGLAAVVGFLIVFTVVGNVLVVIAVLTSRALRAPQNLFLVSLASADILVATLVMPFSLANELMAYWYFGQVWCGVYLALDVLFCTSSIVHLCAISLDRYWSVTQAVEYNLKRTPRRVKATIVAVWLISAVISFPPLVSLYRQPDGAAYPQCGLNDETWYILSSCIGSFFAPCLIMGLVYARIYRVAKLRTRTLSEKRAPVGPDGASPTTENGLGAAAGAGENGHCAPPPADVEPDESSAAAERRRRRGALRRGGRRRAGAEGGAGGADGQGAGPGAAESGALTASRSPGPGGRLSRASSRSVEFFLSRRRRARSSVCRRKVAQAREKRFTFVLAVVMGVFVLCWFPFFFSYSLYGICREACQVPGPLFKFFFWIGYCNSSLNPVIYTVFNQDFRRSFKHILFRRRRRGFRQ
Description: as §1, §2, §3

[6] = biological target: T5, 5-HT6 (Homo sapiens, UniProt P50406)
T5 construct: NIMH PDSP
T5 sequence (P50406 whole entry, species assumed): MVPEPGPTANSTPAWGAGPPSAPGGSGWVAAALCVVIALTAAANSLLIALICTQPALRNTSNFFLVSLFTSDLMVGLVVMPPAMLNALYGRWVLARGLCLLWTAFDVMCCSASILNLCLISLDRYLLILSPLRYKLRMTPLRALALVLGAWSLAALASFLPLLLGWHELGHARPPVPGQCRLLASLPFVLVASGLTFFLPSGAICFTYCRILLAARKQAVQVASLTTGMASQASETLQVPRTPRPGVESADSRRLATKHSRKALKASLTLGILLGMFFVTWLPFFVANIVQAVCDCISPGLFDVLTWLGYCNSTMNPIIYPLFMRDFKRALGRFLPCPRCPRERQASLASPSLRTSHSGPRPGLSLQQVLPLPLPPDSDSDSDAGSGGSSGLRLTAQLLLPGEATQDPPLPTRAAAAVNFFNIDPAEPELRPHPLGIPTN
Description: as §1, §2, §3

[7] = biological target: T6, 5-HT1E (Homo sapiens, UniProt P28566)
T6 construct: NIMH PDSP
T6 sequence (P28566 whole entry, species assumed): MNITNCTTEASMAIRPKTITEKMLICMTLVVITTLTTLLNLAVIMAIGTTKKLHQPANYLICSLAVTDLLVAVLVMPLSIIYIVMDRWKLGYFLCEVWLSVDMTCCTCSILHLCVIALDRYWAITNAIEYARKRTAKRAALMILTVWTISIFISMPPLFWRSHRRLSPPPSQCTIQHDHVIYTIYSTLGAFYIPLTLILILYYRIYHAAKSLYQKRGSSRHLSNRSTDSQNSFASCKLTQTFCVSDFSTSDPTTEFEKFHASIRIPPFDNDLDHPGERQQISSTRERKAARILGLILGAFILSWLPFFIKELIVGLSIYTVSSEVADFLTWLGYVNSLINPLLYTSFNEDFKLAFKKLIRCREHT
Description: as §1, §2, §3

[8] = biological target: T7, 5-HT5A (Homo sapiens, UniProt P47898)
T7 construct: NIMH PDSP
T7 sequence (P47898 whole entry, species assumed): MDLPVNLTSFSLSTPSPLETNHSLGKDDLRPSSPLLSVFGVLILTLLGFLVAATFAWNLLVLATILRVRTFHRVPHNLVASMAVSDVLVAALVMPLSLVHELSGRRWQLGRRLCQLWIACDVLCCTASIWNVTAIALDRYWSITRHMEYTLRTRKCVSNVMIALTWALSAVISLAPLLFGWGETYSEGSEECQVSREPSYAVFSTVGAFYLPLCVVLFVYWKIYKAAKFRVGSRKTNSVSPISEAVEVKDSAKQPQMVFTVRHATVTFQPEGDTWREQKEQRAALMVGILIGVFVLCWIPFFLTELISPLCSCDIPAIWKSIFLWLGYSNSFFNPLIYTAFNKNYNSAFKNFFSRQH
Description: as §1, §2, §3

[9] = biological target: T8, D4 (Homo sapiens, UniProt P21917)
T8 construct: NIMH PDSP
T8 sequence (P21917 1-419): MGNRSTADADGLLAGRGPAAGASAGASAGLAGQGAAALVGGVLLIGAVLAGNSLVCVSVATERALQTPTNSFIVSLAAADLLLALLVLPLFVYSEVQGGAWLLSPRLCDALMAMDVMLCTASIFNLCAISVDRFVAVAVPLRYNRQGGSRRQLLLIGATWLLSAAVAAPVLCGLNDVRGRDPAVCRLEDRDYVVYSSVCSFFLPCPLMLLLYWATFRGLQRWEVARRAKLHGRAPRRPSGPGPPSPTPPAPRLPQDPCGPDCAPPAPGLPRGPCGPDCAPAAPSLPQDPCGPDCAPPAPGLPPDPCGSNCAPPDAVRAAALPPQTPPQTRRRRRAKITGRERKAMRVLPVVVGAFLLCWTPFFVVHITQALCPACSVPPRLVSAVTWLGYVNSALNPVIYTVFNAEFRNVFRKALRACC
Description: as §1, §2, §3

[10] = biological target: H3 (Homo sapiens, UniProt Q9Y5N1)
H3, sequence (Q9Y5N1 whole entry): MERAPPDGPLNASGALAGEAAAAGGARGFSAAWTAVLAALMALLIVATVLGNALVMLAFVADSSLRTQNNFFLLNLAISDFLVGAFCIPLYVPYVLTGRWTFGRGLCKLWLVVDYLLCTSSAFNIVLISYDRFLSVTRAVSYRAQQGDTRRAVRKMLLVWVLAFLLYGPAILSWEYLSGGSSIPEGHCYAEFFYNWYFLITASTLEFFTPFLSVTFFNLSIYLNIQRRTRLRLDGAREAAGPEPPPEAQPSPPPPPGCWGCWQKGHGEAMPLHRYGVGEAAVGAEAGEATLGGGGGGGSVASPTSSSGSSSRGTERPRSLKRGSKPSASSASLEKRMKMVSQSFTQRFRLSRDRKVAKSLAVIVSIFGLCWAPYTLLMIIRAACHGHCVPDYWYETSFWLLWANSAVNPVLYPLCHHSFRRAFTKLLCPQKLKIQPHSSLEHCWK
Description: as §1, §2, §3

[11] = biological target: DAT (Homo sapiens, UniProt Q01959)
DAT, sequence (Q01959 whole entry, species assumed): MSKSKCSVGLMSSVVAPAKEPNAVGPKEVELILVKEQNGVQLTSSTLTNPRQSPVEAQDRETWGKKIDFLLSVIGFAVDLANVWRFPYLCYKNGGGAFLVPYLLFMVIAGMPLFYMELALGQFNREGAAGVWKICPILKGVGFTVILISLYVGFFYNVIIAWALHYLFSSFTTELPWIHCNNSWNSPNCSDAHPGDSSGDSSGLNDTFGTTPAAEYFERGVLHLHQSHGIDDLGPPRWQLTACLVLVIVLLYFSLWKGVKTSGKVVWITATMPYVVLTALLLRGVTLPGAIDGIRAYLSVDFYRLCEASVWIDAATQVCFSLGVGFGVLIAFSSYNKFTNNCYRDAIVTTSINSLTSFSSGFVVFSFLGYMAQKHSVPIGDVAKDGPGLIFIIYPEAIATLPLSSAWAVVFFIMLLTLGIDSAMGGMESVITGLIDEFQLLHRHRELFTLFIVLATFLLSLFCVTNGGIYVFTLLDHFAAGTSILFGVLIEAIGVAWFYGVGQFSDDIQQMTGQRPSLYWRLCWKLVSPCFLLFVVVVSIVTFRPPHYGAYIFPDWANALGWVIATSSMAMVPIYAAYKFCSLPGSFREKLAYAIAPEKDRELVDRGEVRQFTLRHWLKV
Description: as §1, §2, §3

[12] = biological target: T9, Beta2 (Homo sapiens, UniProt P07550)
T9 construct: NIMH PDSP
T9 sequence (P07550 whole entry): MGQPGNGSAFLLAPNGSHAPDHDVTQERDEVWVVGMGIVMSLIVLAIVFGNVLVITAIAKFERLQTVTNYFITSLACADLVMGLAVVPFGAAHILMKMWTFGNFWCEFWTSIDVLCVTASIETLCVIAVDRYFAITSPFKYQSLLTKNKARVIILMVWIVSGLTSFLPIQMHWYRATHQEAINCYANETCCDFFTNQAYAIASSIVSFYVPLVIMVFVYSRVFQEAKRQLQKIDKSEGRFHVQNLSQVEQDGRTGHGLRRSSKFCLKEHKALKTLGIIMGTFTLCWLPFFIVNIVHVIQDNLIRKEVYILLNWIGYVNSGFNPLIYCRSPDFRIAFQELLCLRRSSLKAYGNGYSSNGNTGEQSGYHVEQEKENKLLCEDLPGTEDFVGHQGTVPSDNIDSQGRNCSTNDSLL
Description: as §1, §2, §3

[13] = biological target: T10, D3 (Homo sapiens, UniProt P35462)
T10 construct: NIMH PDSP
T10 sequence (P35462 whole entry): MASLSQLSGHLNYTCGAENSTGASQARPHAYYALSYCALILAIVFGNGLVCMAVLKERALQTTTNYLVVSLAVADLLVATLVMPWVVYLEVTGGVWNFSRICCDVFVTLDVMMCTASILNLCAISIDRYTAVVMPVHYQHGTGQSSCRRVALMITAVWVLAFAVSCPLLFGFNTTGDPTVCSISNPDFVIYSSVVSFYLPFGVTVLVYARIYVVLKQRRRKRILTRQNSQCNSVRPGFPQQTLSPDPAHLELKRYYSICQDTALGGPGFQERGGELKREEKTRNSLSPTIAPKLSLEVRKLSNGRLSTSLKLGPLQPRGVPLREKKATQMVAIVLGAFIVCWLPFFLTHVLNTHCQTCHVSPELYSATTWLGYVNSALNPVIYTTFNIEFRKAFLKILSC
Description: as §1, §2, §3

[14] = quadruplicate, read-out: Mean±SD % inhibition
[15] = replicate 1, read-out: % Inhibition 1
[16] = replicate 2, read-out: % Inhibition 2
[17] = replicate 3, read-out: % Inhibition 3
[18] = replicate 4, read-out: % Inhibition 4

T1 sequence (P14416 whole entry): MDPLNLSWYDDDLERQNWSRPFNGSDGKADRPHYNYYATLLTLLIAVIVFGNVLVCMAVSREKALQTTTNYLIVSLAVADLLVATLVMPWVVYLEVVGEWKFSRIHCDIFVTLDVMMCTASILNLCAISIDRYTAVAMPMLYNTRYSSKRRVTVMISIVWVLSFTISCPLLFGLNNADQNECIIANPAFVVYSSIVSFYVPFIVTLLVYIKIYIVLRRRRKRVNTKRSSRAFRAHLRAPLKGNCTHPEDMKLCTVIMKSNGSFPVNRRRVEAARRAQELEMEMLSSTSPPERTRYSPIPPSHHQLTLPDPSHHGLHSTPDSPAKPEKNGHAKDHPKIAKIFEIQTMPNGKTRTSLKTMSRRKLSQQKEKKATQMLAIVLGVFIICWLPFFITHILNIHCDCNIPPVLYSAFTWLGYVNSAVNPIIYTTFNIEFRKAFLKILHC

SMILES: COc1ccnc(N2CCC3(CCCN(Cc4cn(C)c5ccccc45)C3=O)CC2)n1 [CW24]
- inhibition at 10 µM [1, 14]: -1.7 ± 19.3%
- inhibition at 10 µM [1, 15]: -8.12%
- inhibition at 10 µM [1, 16]: 21.4%
- inhibition at 10 µM [1, 17]: -24.2%
- inhibition at 10 µM [1, 18]: 4.13%
- inhibition at 10 µM [2, 14]: 13.4 ± 6.1%
- inhibition at 10 µM [2, 15]: 19%
- inhibition at 10 µM [2, 16]: 18%
- inhibition at 10 µM [2, 17]: 6.23%
- inhibition at 10 µM [2, 18]: 10.4%
- Mean±SD % inhibition ([3]; quadruplicate): 12.33 ± 12.50%
- % Inhibition 1 ([3]; replicate 1): 8.39%
- % Inhibition 2 ([3]; replicate 2): 1.56%
- % Inhibition 3 ([3]; replicate 3): 8.99%
- % Inhibition 4 ([3]; replicate 4): 30.38%
- inhibition at 10 µM [4, 14]: 12.3 ± 15.4%
- inhibition at 10 µM [4, 15]: 25.7%
- inhibition at 10 µM [4, 16]: 20.1%
- inhibition at 10 µM [4, 17]: 12.8%
- inhibition at 10 µM [4, 18]: -9.45%
- inhibition at 10 µM [5, 14]: 11.1 ± 20.6%
- inhibition at 10 µM [5, 15]: 38.6%
- inhibition at 10 µM [5, 16]: 2.3%
- inhibition at 10 µM [5, 17]: -9.91%
- inhibition at 10 µM [5, 18]: 13.3%
- inhibition at 10 µM [6, 14]: 5.73 ± 17.3%
- inhibition at 10 µM [6, 15]: 17.7%
- inhibition at 10 µM [6, 16]: 23.2%
- inhibition at 10 µM [6, 17]: -12.3%
- inhibition at 10 µM [6, 18]: -5.73%
- inhibition at 10 µM [7, 14]: 18.8 ± 12.2%
- inhibition at 10 µM [7, 15]: 31.3%
- inhibition at 10 µM [7, 16]: 19.5%
- inhibition at 10 µM [7, 17]: 22.5%
- inhibition at 10 µM [7, 18]: 2.07%
- inhibition at 10 µM [8, 14]: -4.44 ± 7.73%
- inhibition at 10 µM [8, 15]: 5.59%
- inhibition at 10 µM [8, 16]: -6.33%
- inhibition at 10 µM [8, 17]: -13.1%
- inhibition at 10 µM [8, 18]: -3.89%
- inhibition at 10 µM [9, 14]: 67.2 ± 5.6%
- inhibition at 10 µM [9, 15]: 73.2%
- inhibition at 10 µM [9, 16]: 70%
- inhibition at 10 µM [9, 17]: 60.3%
- inhibition at 10 µM [9, 18]: 65.3%
- inhibition at 10 µM [10, 14]: -9.38 ± 11.9%
- inhibition at 10 µM [10, 15]: -25%
- inhibition at 10 µM [10, 16]: -12.5%
- inhibition at 10 µM [10, 17]: 0%
- inhibition at 10 µM [10, 18]: 0%
- inhibition at 10 µM [11, 14]: 4.6 ± 8.8%
- inhibition at 10 µM [11, 15]: -0.27%
- inhibition at 10 µM [11, 16]: -4.72%
- inhibition at 10 µM [11, 17]: 8.47%
- inhibition at 10 µM [11, 18]: 14.9%
- inhibition at 10 µM [12, 14]: -10.5 ± 5.4%
- inhibition at 10 µM [12, 15]: -12.2%
- inhibition at 10 µM [12, 16]: -5.09%
- inhibition at 10 µM [12, 17]: -7.41%
- inhibition at 10 µM [12, 18]: -17.3%
- inhibition at 10 µM [13, 14]: -4.9 ± 5.5%
- inhibition at 10 µM [13, 15]: 3.09%
- inhibition at 10 µM [13, 16]: -9.41%
- inhibition at 10 µM [13, 17]: -6.79%
- inhibition at 10 µM [13, 18]: -6.5%
